Data on 15 molecules can be found in patent EP2712863B1, “Novel inhibitors of bacterial biofilms and related methods” (Sequoia Sciences, Inc., priority 2012, dated 2014).

One test has as its system E. coli. The test can be described thus: Biofilm growth assay (spreading biofilm on semi-solid agar). Conditions: Escherichia coli. Type of test: cell-based. The text has this: (§1) "Biofilm Growth Assay" refers to an assay performed on semi-solid agar surface where the bacteria collectively move out from an inoculation point. To those skilled in the art, the act of bacteria collectively moving out from an inoculation point on a semi-solid surface may be referred to as swarming or a spreading biofilm. (Anderson, et al Microbiology, 2003, 149, 37-46; Daniels, et al. FEMS Microbiology Reviews, 2004, 28, 261-289). The procedure to perform this assay is described in detail in the Examples. This type of surface motility by bacteria has been reported in the literature by those skilled in the art.
(§2) The biofilm growth assay was carried out to measure swarming or biofilm spreading on semi-solid agar media in round plates (for example, 100 × 15 mm), also referred to as Petri dishes. For E. coli, the plates contained LB medium with 0.6% agar and 0.5% glucose. P. aeruginosa plates were made with M8 agar supplemented with 0.2% glucose, 100 µM CaCl2, 1 mM MgSO4, and 0.5% Casamino acids. The agar plates of this assay consisted of 0.4% to 0.7% agar (Bacto or Noble agar), although other media may also be used as described in the literature and known to those skilled in the art. Test compounds at the desired concentration were added to the cooled, autoclaved media. Portions of the media were then poured into the plates (20 mL/plate), and the plates allowed to dry at room temperature for approximately 3 to 4 hours. Alternatively, however, plates may be dried in a laminar flow hood for approximately fifteen to twenty minutes. Overnight cultures were grown in a 37°C shaker in LB (E. coli) or TSB (P. aeruginosa). Plates were inoculated by placing 5 µL of the appropriate overnight culture in the centers of the plates. The plates then were incubated overnight at 37°C. The area of the zone of spreading bacteria was then measured and replicates are averaged. Percent inhibition was calculated as 100 × (area without compound - area with compound)/(area without compound). An active compound was considered that which reduces the area of the spreading biofilm compared to negative controls by greater than or equal to 85%. The values shown in Table 1 are the concentrations of compounds (µg/ml) tested in the biofilm growth assay that reduce the area of the spreading biofilm compared to negative controls by greater than or equal to 85% unless noted differently in Table 1. A > ("greater than" symbol) as used in Table 1 is well understood to those skilled in the art as an indication that the listed concentration was not effective at this concentration.
(§3) All of the compounds shown in Tables 2, 3, 4, and 5, below, were prepared semi-synthetically from oleanolic acid, except for Compounds 2 and 3. Compound 2 was prepared from ursolic acid. Compound 3 was prepared from hederagenin, but could also be prepared from an oleanolic acid analog with a hydroxyl at C23 or C24. These compounds were tested in the spreading biofilm assay according to the methods detailed in Example I, above. The values shown in Tables 2, 3, 4, and 5 are the concentrations of compounds tested in the biofilm growth assay that reduce the area of the spreading biofilm compared to negative controls by greater than or equal to 85%. Table 2. Compound 1 and its Analogs and their inhibitory concentrations in the biofilm growth assay as detailed in Example I, above

For a further test, the system named is P. aeruginosa. The description is as above. Conditions: Pseudomonas aeruginosa. Type of test: cell-based.
From the text: as §1, §2, §3

Where [1] appears, read: Table 1, concentration that reduces the area of the spreading biofilm vs negative controls by >= 85%, > means not effective at this concentration, read-out: E. coli.
Where [2] appears, read: Table 1, concentration that reduces the area of the spreading biofilm vs negative controls by >= 85%, > means not effective at this concentration, read-out: P. aeruginosa.
Where [3] appears, read: Table 3, concentration that reduces the area of the spreading biofilm by >= 85%, read-out: E. coli.
Where [4] appears, read: Table 3, concentration that reduces the area of the spreading biofilm by >= 85%, read-out: P. aeruginosa.
Where [5] appears, read: Table 4, concentration that reduces the area of the spreading biofilm by >= 85%, read-out: E. coli.
Setting [6] is: Table 4, concentration that reduces the area of the spreading biofilm by >= 85%, read-out: P. aeruginosa.

In brackets after ≈: the same amount, converted by molar mass. Read-outs that look alike come from different tables or passages of the source.

With `C=C(C)[C@@H]1CC[C@]2(C(=O)O)CC[C@]3(C)[C@H](CC[C@@H]4[C@@]5(C)CC[C@H](O)C(C)(C)[C@@H]5CC[C@]43C)[C@@H]12` [Betulinic acid, reference compound], the IC85 in the test with E. coli (setting [1]) and in the test with P. aeruginosa (setting [2]) was more than 16 µg/mL each time.

Regarding `CC1(C)CC[C@]2(C(=O)O)CC[C@]3(C)C(=C(c4ccc(N5CCOCC5)cc4)CC4[C@@]5(C)Cc6c(n[nH]c6N)C(C)(C)C5CC[C@]43C)C2C1` (stereo partly drawn) [Compound 51, (4aS,6aS,6bR,13aR)-12-Amino-2,2,6a,6b,9,9,13a-heptamethyl-15-(4-morpholinophenyl)-2,3,4,4a,5,6,6a,6b,7,8,8a,9,11,13,13a,13b,14,15b-octadecahydro-1H-chryseno[1,2-f]indazole-4a-carboxylic acid], the figures for the IC85 in the test on E. coli (setting [3]) and in the test with P. aeruginosa (setting [4]) were 2 µg/mL (≈ 3.05 µM) and 0.5 µg/mL (≈ 0.763 µM), respectively.

For `CC1(C)CC[C@]2(C(=O)O)CC[C@]3(C)C(=C(c4cccc(F)c4)CC4[C@@]5(C)Cc6c(n[nH]c6N)C(C)(C)[C@@H]5CC[C@]43C)[C@@H]2C1` (stereo partly drawn) [Compound 17, (4aS,6aS,6bR,8aR,13aR,15bS)-12-Amino-15-(3-fluorophenyl)-2,2,6a,6b,9,9,13a-heptamethyl-2,3,4,4a,5,6,6a,6b,7,8,8a,9,11,13,13a,13b,14,15b-octadecahydro-1H-chryseno[1,2-f]indazole-4a-carboxylic acid], the values for the IC85 in the test with E. coli (setting [3]) and in the test on P. aeruginosa (setting [4]) were more than 2 µg/mL and 0.5 µg/mL (≈ 0.851 µM), respectively.

With `CC1(C)CC[C@]2(CN)CC[C@]3(C)C(=CCC4[C@@]5(C)Cc6c(n[nH]c6N)C(C)(C)C5CC[C@]43C)C2C1` (stereo partly drawn) [Compound 63, (4aS,6aS,6bR,13aR)-4a-(Aminomethyl)-2,2,6a,6b,9,9,13a-heptamethyl-2,3,4,4a,5,6,6a,6b,7,8,8a,9,11,13,13a,13b,14,15b-octadecahydro-1H-chryseno[1,2-f]indazol-12-amine], the IC85 came out at 1 µg/mL (≈ 2.09 µM) in the test with E. coli (setting [5]) and 4 µg/mL (≈ 8.35 µM) with P. aeruginosa (setting [6]).

For the molecule `CC1(C)CC[C@]2(C(=O)O)CC[C@]3(C)C(=C(c4ccco4)CC4[C@@]5(C)Cc6c(n[nH]c6N)C(C)(C)C5CC[C@]43C)C2C1` (stereo partly drawn) [Compound 7, (4aS,6aS,6bR,13aR)-12-Amino-15-(furan-2-yl)-2,2,6a,6b,9,9,13a-heptamethyl-2,3,4,4a,5,6,6a,6b,7,8,8a,9,11,13,13a,13b,14,15b-octadecahydro-1H-chryseno[1,2-f]indazole-4a-carboxylic acid], the IC85 was 1 µg/mL (≈ 1.79 µM) in the test with E. coli (Table 2, concentration that reduces the area of the spreading biofilm by >= 85%, read-out: E. coli) and 0.25 µg/mL (≈ 0.447 µM) with P. aeruginosa (Table 2, concentration that reduces the area of the spreading biofilm by >= 85%, read-out: P. aeruginosa).

Regarding `CC1(C)CC[C@]2(c3n[nH]c(O)c3CCNC(N)=O)CC[C@]3(C)C(=CCC4[C@@]5(C)Cc6c(n[nH]c6N)C(C)(C)C5CC[C@]43C)C2C1` (stereo partly drawn) [Compound 87, 1-(2-(3-((4aS,6aS,6bR,13aR)-12-Amino-2,2,6a,6b,9,9,13a-heptamethyl-2,3,4,4a,5,6,6a,6b,7,8,8a,9,11,13,13a,13b,14,15b-octadecahydro-1H-chryseno[1,2-f]indazol-4a-yl)-5-hydroxy-1H-pyrazol-4-yl)ethyl)urea], the IC85 in the test on E. coli (setting [5]) was 1 µg/mL (≈ 1.62 µM); in the test with P. aeruginosa (setting [6]), 0.5 µg/mL (≈ 0.809 µM).

For `CC1(C)CC[C@]2(c3cc(N)[nH]n3)CC[C@]3(C)C(=CCC4[C@@]5(C)Cc6c(n[nH]c6N)C(C)(C)C5CC[C@]43C)C2C1` (stereo partly drawn) [Compound 60, (4aS,6aS,6bR,13aR)-4a-(5-Amino-1 H-pyrazol-3-yl)-2,2,6a,6b,9,9,13a-heptamethyl-2,3,4,4a,5,6,6a,6b,7,8,8a,9,11,13,13a,13b,14,15b-octadecahydro-1H-chryseno[1,2-f]indazol-12-amine], the values for the IC85 with E. coli (setting [5]) and in the test on P. aeruginosa (setting [6]) were 1 µg/mL (≈ 1.88 µM) and 0.5 µg/mL (≈ 0.942 µM), respectively.

Take `CC1(C)CC[C@]2(C(=O)O)CC[C@]3(C)C(=C(c4ccccc4CN4CCOCC4)CC4[C@@]5(C)Cc6c(n[nH]c6N)C(C)(C)[C@@H]5CC[C@]43C)[C@@H]2C1` (stereo partly drawn) [Compound 59, (4aS,6aS,6bR,8aR,13aR,15bS)-12-Amino-2,2,6a,6b,9,9,13a-heptamethyl-15-(2-(morpholinomethyl)phenyl)-2,3,4,4a,5,6,6a,6b,7,8,8a,9,11,13,13a,13b,14,15b-octadecahydro-1H-chryseno[1,2-f]indazole-4a-carboxylic acid]: the values for the IC85 with E. coli (setting [3]) and with P. aeruginosa (setting [4]) were more than 1 µg/mL and 0.5 µg/mL (≈ 0.747 µM), respectively.

Consider `CC1(C)CC[C@]2(C(=O)O)CC[C@]3(C)C(=C(c4ccsc4CN4CCOCC4)CC4[C@@]5(C)Cc6c(n[nH]c6N)C(C)(C)C5CC[C@]43C)C2C1` (stereo partly drawn) [Compound 34, (4aS,6aS,6bR,13aR)-12-Amino-2,2,6a,6b,9,9,13a-heptamethyl-15-(2-(morpholinomethyl)thiophen-3-yl)-2,3,4,4a,5,6,6a,6b,7,8,8a,9,11,13,13a,13b,14,15b-octadecahydro-1H-chryseno[1,2-f]indazole-4a-carboxylic acid], for which the IC85 with E. coli (setting [3]) and in the test with P. aeruginosa (setting [4]) was 1 µg/mL (≈ 1.48 µM) each time.

As to `CC1(C)CC[C@]2(C(=O)O)CC[C@]3(C)C(=C(c4cncnc4)CC4[C@@]5(C)Cc6c(n[nH]c6N)C(C)(C)[C@@H]5CC[C@]43C)[C@@H]2C1` (stereo partly drawn) [Compound 30, (4aS,6aS,6bR,8aR,13aR,15bS)-12-Amino-2,2,6a,6b,9,9,13a-heptamethyl-15-(pyrimidin-5-yl)-2,3,4,4a,5,6,6a,6b,7,8,8a,9,11,13,13a,13b,14,15b-octadecahydro-1H-chryseno[1,2-f]indazole-4a-carboxylic acid], the IC85 in the test with E. coli (setting [3]) came out at 1 µg/mL (≈ 1.75 µM); in the test on P. aeruginosa (setting [4]) it was 2 µg/mL (≈ 3.5 µM).

Take `CC1(C)CC[C@]2(c3n[nH]c(O)c3F)CC[C@]3(C)C(=CCC4[C@@]5(C)Cc6c(n[nH]c6N)C(C)(C)C5CC[C@]43C)C2C1` (stereo partly drawn) [Compound 83, 3-((4aS,6aS,6bR,13aR)-12-Amino-2,2,6a,6b,9,9,13a-heptamethyl-2,3,4,4a,5,6,6a,6b,7,8,8a,9,11,13,13a,13b,14,15b-octadecahydro-1H-chryseno[1,2-f]indazol-4a-yl)-4-fluoro-1H-pyrazol-5-ol]: the figures for the IC85 in the test with E. coli (setting [5]) and in the test on P. aeruginosa (setting [6]) were 0.5 µg/mL (≈ 0.909 µM) and 0.25 µg/mL (≈ 0.455 µM), respectively.

Turning to `CC1(C)CC[C@]2(C(=O)Nc3nnn[nH]3)CC[C@]3(C)C(=CCC4[C@@]5(C)Cc6c(n[nH]c6N)C(C)(C)C5CC[C@]43C)C2C1` (stereo partly drawn) [Compound 61, (4aS,6aS,6bR,13aR)-12-Amino-2,2,6a,6b,9,9,13a-heptamethyl-N-(1H-tetrazol-5-yl)-2,3,4,4a,5,6,6a,6b,7,8,8a,9,11,13,13a,13b,14,15b-octadecahydro-1H-chryseno[1,2-f]indazole-4a-carboxamide], the IC85 with E. coli (read-out: E. coli (µg/ml)) and in the test on P. aeruginosa (read-out: P. aeruginosa (µg/ml)) was 0.5 µg/mL (≈ 0.892 µM) each time.

For the molecule `CC1(C)CC[C@]2(C(=O)Nc3cc(S)n[nH]3)CC[C@]3(C)C(=CCC4[C@@]5(C)Cc6c(n[nH]c6N)C(C)(C)C5CC[C@]43C)C2C1` (stereo partly drawn) [Compound 79, (4aS,6aS,6bR,13aR)-12-Amino-N-(3-mercapto-1H-pyrazol-5-yl)-2,2,6a,6b,9,9,13a-heptamethyl-2,3,4,4a,5,6,6a,6b,7,8,8a,9,11,13,13a,13b,14,15b-octadecahydro-1H-chryseno[1,2-f]indazole-4a-carboxamide], the IC85 worked out at 0.5 µg/mL (≈ 0.846 µM) in the test on E. coli (setting [5]) and 0.25 µg/mL (≈ 0.423 µM) in the test on P. aeruginosa (setting [6]).

For the molecule `CC1(C)CC[C@]2(C(=O)O)CC[C@]3(C)[C@H](C(=O)C=C4[C@@]5(C)C=C(C#N)C(=O)C(C)(C)[C@@H]5CC[C@]43C)[C@@H]2C1` [L], the IC85 in the test with E. coli (setting [1]) and in the test on P. aeruginosa (setting [2]) was more than 16 µg/mL in each case.

Consider `CC1(C)CC[C@]2(C(=O)O)CC[C@]3(C)C(=C(c4ccc5[nH]ccc5c4)CC4[C@@]5(C)Cc6c(n[nH]c6N)C(C)(C)C5CC[C@]43C)C2C1` (stereo partly drawn) [Compound 49, (4aS,6aS,6bR,13aR)-12-Amino-15-(1H-indol-5-yl)-2,2,6a,6b,9,9,13a-heptamethyl-2,3,4,4a,5,6,6a,6b,7,8,8a,9,11,13,13a,13b,14,15b-octadecahydro-1H-chryseno[1,2-f]indazole-4a-carboxylic acid], for which the figures for the IC85 in the test on E. coli (setting [3]) and in the test with P. aeruginosa (setting [4]) were more than 1 µg/mL and 0.5 µg/mL (≈ 0.821 µM), respectively.
